Laboratory results from patent publication US20130225694A1, “COMPOSITIONS AND METHODS OF INHIBITING RETINAL DEGENERATION” (Oklahoma Medical Research Foundation, priority 2012, published 2013).
Where two headings read alike, the source gives them in different places.

Tests used:
chicken RPE65 = molecular target: T1, chicken RPE65 (Gallus gallus, UniProt Q9YGX2); test: Liposome-based isomerohydrolase assay with recombinant chicken RPE65; format: biochemical
T1 construct: made in house; host or cells: 293A cells infected with chicken RPE65 adenovirus; total lysate used
T1 sequence (Q9YGX2 1-533): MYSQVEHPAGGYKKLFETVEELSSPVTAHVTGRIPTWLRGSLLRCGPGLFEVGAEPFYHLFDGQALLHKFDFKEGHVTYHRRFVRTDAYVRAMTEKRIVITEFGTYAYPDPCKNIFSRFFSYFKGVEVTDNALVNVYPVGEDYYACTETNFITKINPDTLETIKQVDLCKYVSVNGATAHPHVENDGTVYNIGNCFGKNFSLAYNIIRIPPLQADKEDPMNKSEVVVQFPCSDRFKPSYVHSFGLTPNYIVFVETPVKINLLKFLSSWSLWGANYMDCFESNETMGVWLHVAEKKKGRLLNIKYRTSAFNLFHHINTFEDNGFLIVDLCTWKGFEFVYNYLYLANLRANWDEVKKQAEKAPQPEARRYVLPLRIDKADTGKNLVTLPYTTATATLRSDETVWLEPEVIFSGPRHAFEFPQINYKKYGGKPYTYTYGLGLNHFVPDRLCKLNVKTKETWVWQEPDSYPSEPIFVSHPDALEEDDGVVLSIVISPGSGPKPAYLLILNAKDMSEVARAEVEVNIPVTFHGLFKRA

RPE65 isomerohydrolase = molecular target: T2, RPE65 isomerohydrolase (Bos taurus, UniProt Q28175); test: In vitro RPE65 isomerohydrolase assay with bovine RPE microsomes (Example 3); format: biochemical
T2 construct: Bovine RPE microsomes were used as a source of the RPE65 protein; from tissue; host or cells: bovine RPE microsomes
T2 sequence (Q28175 whole entry): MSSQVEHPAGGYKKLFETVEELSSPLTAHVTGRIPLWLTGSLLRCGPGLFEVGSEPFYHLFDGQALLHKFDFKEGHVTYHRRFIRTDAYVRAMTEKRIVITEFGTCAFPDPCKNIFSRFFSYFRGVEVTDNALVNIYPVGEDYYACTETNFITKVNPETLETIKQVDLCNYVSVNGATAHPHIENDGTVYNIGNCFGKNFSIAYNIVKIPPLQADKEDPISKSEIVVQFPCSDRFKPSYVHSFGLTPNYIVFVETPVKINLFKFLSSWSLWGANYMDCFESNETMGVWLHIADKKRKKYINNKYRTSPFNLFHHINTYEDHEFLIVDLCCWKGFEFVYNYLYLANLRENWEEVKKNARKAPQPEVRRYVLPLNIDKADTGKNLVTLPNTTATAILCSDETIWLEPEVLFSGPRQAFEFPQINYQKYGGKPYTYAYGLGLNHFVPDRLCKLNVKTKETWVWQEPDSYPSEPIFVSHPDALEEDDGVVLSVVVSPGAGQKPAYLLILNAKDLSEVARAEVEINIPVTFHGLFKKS
Source text: In this Example, the effect of several PBN analogs on RPE65 isomerohydrolase activity was investigated in an in vitro assay. The chemical structures of the PBN analogs utilized are described herein above. Bovine RPE microsomes were used as a source of the RPE65 protein and all-trans-[^3H] retinol was a substrate for the isomerohydrolase assay. The produced 11-cis-[^3H] retinol was quantified by normal phase HPLC with flow scintillation analyzer. The inhibition of isomerohydrolase activity was dependent on the PBN analog's concentration.
FIG. 9 also illustrates the calculation of IC50 values for the two difluoro-PBN analogs. IC50 values are the concentration of the inhibitor that inhibits 50% of the enzymatic activity. Therefore, the smaller the IC50 value, the better the drug.

SMILES: CC(C)(C)/[N+]([O-])=C/c1ccccc1 [Compound 1, α-phenyl-N-tert-butyl nitrone]
- type of inhibition (chicken RPE65; Lineweaver-Burk, with and without 0.1 mM PBN): uncompetitive inhibition
- Ki (chicken RPE65; all-trans-retinyl palmitate liposomes, 0.1 mM PBN, read-out: Ki (inhibition constant, uncompetitive formula)): 53 ± 7 µM
- IC50 (RPE65 isomerohydrolase; apparent IC50, bovine RPE microsomes, all-trans-[3H] retinol substrate (Table 1), read-out: IC50 Values for the Inhibition of RPE65 Isomerohydrolase Reaction): 100 µM
- IC50 (RPE65 isomerohydrolase; in vitro RPE65 isomerohydrolase IC50 values repeated in Table 7, read-out: IC50): 100 µM
